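Following 48 hours of exposure in 96-well plates, responses at five concentrations were used to interpolate endpoints linearly. At the TGI there is no net growth.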
How the values were obtained:
Assay in all cases: growth of human tumour cells (NCI), 48 h
[1] = system: NCI-H522 lung
[2] = system: T-47D breast
[3] = system: SK-MEL-2 melanoma
[4] = system: HOP-92 NSCLC
[5] = system: CAKI-1 renal
[6] = system: OVCAR-3 ovarian
[7] = system: UO-31 renal
[8] = system: DU-145 prostate
[9] = system: HCT-15 colon
[10] = system: MDA-MB-231 breast
[11] = system: CCRF-CEM leukemia
[12] = system: MOLT-4 leukemia
[13] = system: SF-268 CNS
[14] = system: BT-549 breast
[15] = system: NCI-H460 lung
[16] = system: IGROV1 ovarian
[17] = system: HCT-116 colon
[18] = system: MCF7 breast
[19] = system: RPMI-8226 leukemia
[20] = system: SW-620 colon
[21] = system: HCC-2998 colon
[22] = system: M14 melanoma
[23] = system: HOP-62 NSCLC
[24] = system: SF-295 CNS
[25] = system: MDA-MB-435
[26] = system: OVCAR-5 ovarian
[27] = system: A549 NSCLC
[28] = system: U251 CNS
[29] = system: SNB-75 CNS
[30] = system: NCI/ADR-RES ovarian
[31] = system: OVCAR-4 ovarian
[32] = system: COLO 205 colon
[33] = system: OVCAR-8 ovarian
[34] = system: NCI-H23 lung
[35] = system: SR leukemia
[36] = system: KM12 colon
[37] = system: SN12C renal
[38] = system: SNB-19 CNS
[39] = system: UACC-257 melanoma
[40] = system: SK-MEL-5 melanoma
[41] = system: 786-0 renal
[42] = system: HL-60(TB) leukemia
[43] = system: HS 578T breast
[44] = system: NCI-H226 lung
[45] = system: UACC-62 melanoma
[46] = system: HT29 colon
[47] = system: LOX IMVI melanoma
[48] = system: PC-3 prostate
[49] = system: SF-539 CNS
[50] = system: MDA-N
[51] = system: SK-MEL-28 melanoma
[52] = system: A498 renal
[53] = system: TK-10 renal
[54] = system: MALME-3M melanoma
[55] = system: ACHN renal
[56] = system: K-562 leukemia
[57] = system: EKVX NSCLC
[58] = system: RXF 393 renal
[59] = system: SK-OV-3 ovarian

Measured: TGI

COc1ccc(C2CC(c3cc4c(C)c(C(=O)c5ccccc5)oc4cc3O)=Nc3ccccc3S2)cc1OC (centres undefined)
> 34.8 µM: [36]
> 87 µM: [52]
> 61.6 µM: [50]
> 48.9 µM: [31]
> 85.8 µM: [2] | [38] | [45]
2.05 µM: [25]
> 34.3 µM: [23]
> 86.2 µM: [49]
> 85 µM: [1]
> 73.7 µM: [4]
not listed: [58] | [59]
> 100 µM: all other assays above

Fc1cccc(F)c1C1SCC2=Nc3ccccc3CN21 (centres undefined)
84.4 µM: [23]
81.8 µM: [29]
79.5 µM: [30]
47.5 µM: [6]
63.2 µM: [58]
92.7 µM: [49]
not listed: [1] | [3] | [13] | [33] | [44] | [46] | [54]
> 100 µM: all other assays above

— PubChem BioAssay (NCI)
